Experimental data published in patent US7410975B2, “Small molecule toll-like receptor (TLR) antagonists” (Coley Pharmaceutical Group, Inc., priority 2003, dated 2008).
Where a name gives a salt, the structure may show the parent alone.

biological target: T1, human TLR3 (hTLR3) (Homo sapiens, UniProt O15455); experiment: Antagonist screen, hTLR3-NFκB-293 cells, NF-κB-luciferase reporter, with EC50 of poly(I:C); format: cell-based; conditions: compound at 0.5, 5, 50 μg/ml; EC50 concentration of poly(I:C); 16 h; NF-κB-luciferase
T1 construct: expressed in transfected cells
T1 sequence (O15455 24-904): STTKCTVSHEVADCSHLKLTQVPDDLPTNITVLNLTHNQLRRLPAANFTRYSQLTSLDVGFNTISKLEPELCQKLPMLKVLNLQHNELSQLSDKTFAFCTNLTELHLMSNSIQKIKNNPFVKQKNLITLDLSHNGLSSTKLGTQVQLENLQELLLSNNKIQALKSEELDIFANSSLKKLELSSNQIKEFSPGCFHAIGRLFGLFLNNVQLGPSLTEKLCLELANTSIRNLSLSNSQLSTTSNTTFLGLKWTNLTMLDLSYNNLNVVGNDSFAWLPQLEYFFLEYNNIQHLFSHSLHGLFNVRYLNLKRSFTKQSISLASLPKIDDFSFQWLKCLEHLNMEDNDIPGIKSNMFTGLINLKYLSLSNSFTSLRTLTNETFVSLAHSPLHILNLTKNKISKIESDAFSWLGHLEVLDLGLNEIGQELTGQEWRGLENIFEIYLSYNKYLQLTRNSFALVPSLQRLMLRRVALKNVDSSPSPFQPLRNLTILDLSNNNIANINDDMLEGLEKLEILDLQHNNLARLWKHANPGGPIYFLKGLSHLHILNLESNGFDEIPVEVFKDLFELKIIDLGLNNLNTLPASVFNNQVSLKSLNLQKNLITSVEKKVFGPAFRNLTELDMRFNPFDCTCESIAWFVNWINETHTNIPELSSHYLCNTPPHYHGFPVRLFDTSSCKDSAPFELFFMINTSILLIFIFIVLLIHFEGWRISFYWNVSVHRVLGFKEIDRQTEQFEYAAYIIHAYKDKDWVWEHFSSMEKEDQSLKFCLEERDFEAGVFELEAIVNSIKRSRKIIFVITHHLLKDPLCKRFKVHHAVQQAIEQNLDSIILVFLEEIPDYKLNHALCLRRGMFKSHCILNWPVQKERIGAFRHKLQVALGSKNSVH
Protocol: The method is described in greater detail as follows. The cells for each individual cell clone (hTLR3-NFκB-293, hTLR7-NFκB-293, hTLR8-NFκB-293 and hTLR9-NFκB-293) were counted and seeded one day before the stimulation at 1.5×10^4 cells per well in 96-well cell culture plates. To become adherent the cells were incubated after seeding overnight at 37° C. in 5% CO2 humidified air.
The screen for each compound was performed at the same time for all of the receptors TLR3, TLR7, TLR8 and TLR9. Up to fifteen test compounds, each assayed in duplicate at each of three different final concentrations (0.5 μg/ml, 5 μg/ml, and 50 μg/ml), were used for 16 h cell stimulation on a single multiwell culture plate. A 4× final concentration master plate was created to prepare the different test compounds before they were added to the cells.
Controls were added as duplicates individually for each cell clone on the cell culture plate. Positive controls were used as follows (final concentrations): 50 μg/ml poly(I:C) for hTLR3-NFκB-293; 8 μM resiquimod (R848) for hTLR7-NFκB-293; 30 μM R848 for hTLR8-NFκB-293; and 2.5 μM CpG-ODN 2006 for hTLR9-NFκB-293. Media alone was used as negative control. After addition of controls and small molecules, the cell clones were additionally stimulated with the EC50 concentration of the appropriate receptor-specific ligand.
The mean value of wells H2 and H5 (each with cells and EC50 concentration of the appropriate receptor-specific ligand) divided by the mean of wells H3 and H6 (each with cells alone) yielded the baseline response (i.e., fold induction of luciferase activity) to EC50 concentration of the appropriate receptor-specific ligand.
After 16 h stimulation the supernatant was removed and the cells treated with lysis buffer and stored at −80° C. before measuring.
For each screen result a graphical documentation was performed.
The baseline result (measured with addition of the EC50 concentration of the receptor-specific ligand) for each cell culture plate was measured as described above. Antagonistic effects were measured by down regulation compared to the baseline. Antagonists were scored as follows: • 13: compounds for which there was clear down regulation at 0.5 μg/ml, 5 μg/ml, and 50 μg/ml; • 12: compounds for which there was clear down regulation at 5 μg/ml and 50 μg/ml; • 11: compounds for which there was clear down regulation only at 50 μg/ml; • —: compounds for which there was no clear down regulation even at 50 μg/ml. Agonists
Results were expressed as fold induction over baseline luciferase activity measured in the absence of poly(I:C). […] Additional screening was performed in like manner using additional small molecules selected from another library or specifically prepared for this purpose. Scoring is reported as above but as applied to TLR3.

Question: With `CC[C@]12CCCN3CCc4c(n(c5ccccc45)C(=O)C1)[C@@H]32` [compound 607, Eburnamonine] as the compound, how does the “hTLR3 (inhibitory effect, antagonist score)” value read?
Answer: — (compounds for which there was no clear down regulation even at 50 μg/ml)

Question: For `Cc1nccc2c1[nH]c1cc(O)ccc12.Cl` [compound 612, Harmol hydrochloride monohydrate], which “hTLR3 (inhibitory effect, antagonist score)” value is on record?
Answer: 11 (compounds for which there was clear down regulation only at 50 μg/ml)

Question: `COc1ccc2c(c1)[nH]c1c(C)nccc12.Cl` [compound 613, harmine hydrochloride] was tested. Which “hTLR3 (inhibitory effect, antagonist score)” value did it give?
Answer: 12 (compounds for which there was clear down regulation at 5 μg/ml and 50 μg/ml)

Question: With `Cc1c2ccncc2c(C)c2c1[nH]c1ccccc12` [compound 614, Ellipticine] as the compound, how does the “hTLR3 (inhibitory effect, antagonist score)” value read?
Answer: 12 (compounds for which there was clear down regulation at 5 μg/ml and 50 μg/ml)

Question: How did the “hTLR3 (inhibitory effect, antagonist score)” value turn out when `Cc1nccc2c1[nH]c1ccccc12` [compound 620, Harmane hydrochloride] was run?
Answer: — (compounds for which there was no clear down regulation even at 50 μg/ml)

Question: How did the “hTLR3 (inhibitory effect, antagonist score)” value turn out when `COc1ccc2[nH]c3c(c2c1)CCN=C3C` [compound 621, Methoxy-6-harmalan] was run?
Answer: — (compounds for which there was no clear down regulation even at 50 μg/ml)

Question: For `CC[C@]12CCCN3CCc4c(n(c5ccccc45)[C@](O)(C(=O)OC)C1)[C@@H]32` [compound 636, Epivincamine], which “hTLR3 (inhibitory effect, antagonist score)” value is on record?
Answer: 11 (compounds for which there was clear down regulation only at 50 μg/ml)

Question: Which “hTLR3 (inhibitory effect, antagonist score)” value does the source give for `Cl.Cl.c1ccc2c3c([nH]c2c1)C1C2CCC(C4CCCNC42)N1CC3` (centres unmarked) [compound 685, Nitrarine dihydorchloride] here?
Answer: — (compounds for which there was no clear down regulation even at 50 μg/ml)

Question: `CN(C)CCCN1c2ccccc2Sc2ccccc21.Cl` [compound 693, Promazinehydrochloride] was tested. Which “hTLR3 (inhibitory effect, antagonist score)” value did it give?
Answer: — (compounds for which there was no clear down regulation even at 50 μg/ml)

Question: Which “hTLR3 (inhibitory effect, antagonist score)” value does the source give for `CN1CCC(OC(c2ccccc2)c2ccccc2)CC1.Cl` [compound 707, Diphenylpyralinehydrochloride] here?
Answer: — (compounds for which there was no clear down regulation even at 50 μg/ml)

Question: How did the “hTLR3 (inhibitory effect, antagonist score)” value turn out when `CCCC(C(=O)OCCN(CC)CC)(c1ccccc1)c1ccccc1.Cl` [compound 778, Proadifen hydrochloride] was run?
Answer: 11 (compounds for which there was clear down regulation only at 50 μg/ml)

Question: How did the “hTLR3 (inhibitory effect, antagonist score)” value turn out when `Cl.Clc1ccc(C(OCCN2CCCCC2)c2ccccc2)cc1` (centres unmarked) [compound 793, Cloperastinehydrochloride] was run?
Answer: 11 (compounds for which there was clear down regulation only at 50 μg/ml)

Question: `COc1ccc2c(c1)N(CC(C)CN(C)C)c1ccccc1S2.O=C(O)/C=C\C(=O)O` (centres unmarked) [compound 797, Methotrimeprazinemaleat salt] was tested. Which “hTLR3 (inhibitory effect, antagonist score)” value did it give?
Answer: 11 (compounds for which there was clear down regulation only at 50 μg/ml)

Question: Which “hTLR3 (inhibitory effect, antagonist score)” value does the source give for `CS(=O)(=O)O.OC(CCN1CCCCC1)(c1ccccc1)c1ccccc1` [compound 799, Pridinolmethanesulfonate salt] here?
Answer: — (compounds for which there was no clear down regulation even at 50 μg/ml)

Question: With `C[N+]12CCC(CC1)C(OC(=O)C(O)(c1ccccc1)c1ccccc1)C2.[Br-]` (centres unmarked) [compound 822, Clidinium bromide] as the compound, how does the “hTLR3 (inhibitory effect, antagonist score)” value read?
Answer: — (compounds for which there was no clear down regulation even at 50 μg/ml)

Question: Which “hTLR3 (inhibitory effect, antagonist score)” value does the source give for `Clc1ccc(C(c2ccccc2Cl)C(Cl)Cl)cc1` (centres unmarked) [compound 833, Mitotane] here?
Answer: 11 (compounds for which there was clear down regulation only at 50 μg/ml)

Question: For `CCN(CC)C(C)CN1c2ccccc2Sc2ccccc21.Cl` (centres unmarked) [compound 840, Ethopropazinehydrochloride], which “hTLR3 (inhibitory effect, antagonist score)” value is on record?
Answer: — (compounds for which there was no clear down regulation even at 50 μg/ml)

Question: `CC(CN(C)C)CN1c2ccccc2Sc2ccccc21.CC(CN(C)C)CN1c2ccccc2Sc2ccccc21.O=C(O)C(O)C(O)C(=O)O` (centres unmarked) [compound 842, Trimeprazine tartrate] was tested. Which “hTLR3 (inhibitory effect, antagonist score)” value did it give?
Answer: — (compounds for which there was no clear down regulation even at 50 μg/ml)

Question: With `COC(=O)[C@H]1[C@H]2C[C@@H]3c4[nH]c5cc(OC)ccc5c4CCN3C[C@H]2C[C@@H](OC(=O)c2cc(OC)c(OC)c(OC)c2)[C@@H]1OC` [compound 875, Reserpine] as the compound, how does the “hTLR3 (inhibitory effect, antagonist score)” value read?
Answer: — (compounds for which there was no clear down regulation even at 50 μg/ml)

Question: For `OCc1cc2c(cn1)[nH]c1ccccc12` [compound 878, 3-hydroxymethyl-beta-carboline], which “hTLR3 (inhibitory effect, antagonist score)” value is on record?
Answer: — (compounds for which there was no clear down regulation even at 50 μg/ml)

Question: How did the “hTLR3 (inhibitory effect, antagonist score)” value turn out when `O=C(O)c1cc(C(c2ccc(O)c(C(=O)O)c2)C(Cl)(Cl)Cl)ccc1O` [compound 884] was run?
Answer: — (compounds for which there was no clear down regulation even at 50 μg/ml)

Question: For `CN(CCO)C(=O)c1cccc2c1-c1ccccc1C2=O` [compound 890], which “hTLR3 (inhibitory effect, antagonist score)” value is on record?
Answer: — (compounds for which there was no clear down regulation even at 50 μg/ml)

Question: For `COC(=O)c1cccc2c1-c1ccccc1/C2=N/O` [compound 904], which “hTLR3 (inhibitory effect, antagonist score)” value is on record?
Answer: 12 (compounds for which there was clear down regulation at 5 μg/ml and 50 μg/ml)

Question: Which “hTLR3 (inhibitory effect, antagonist score)” value does the source give for `O=C(O)c1ccccc1NC1CC=CC2=C1C(=O)c1ccccc1C2=O` (centres unmarked) [compound 917] here?
Answer: 12 (compounds for which there was clear down regulation at 5 μg/ml and 50 μg/ml)

Question: `O=C(O)c1cccc2c1/C(=N/O)c1ccccc1-2` [compound 918] was tested. Which “hTLR3 (inhibitory effect, antagonist score)” value did it give?
Answer: — (compounds for which there was no clear down regulation even at 50 μg/ml)

Question: For `CCCCOC(=O)c1cc([N+](=O)[O-])cc2c1-c1cc(CO)c([NH+]([O-])O)cc1C2=C(C#N)C#N` (centres unmarked) [compound 939], which “hTLR3 (inhibitory effect, antagonist score)” value is on record?
Answer: 11 (compounds for which there was clear down regulation only at 50 μg/ml)

Question: `O=C(O)c1cccc2c1-c1ccccc1/C2=N/Nc1ccc([N+](=O)[O-])cc1[N+](=O)[O-]` [compound 944] was tested. Which “hTLR3 (inhibitory effect, antagonist score)” value did it give?
Answer: 11 (compounds for which there was clear down regulation only at 50 μg/ml)

Question: Which “hTLR3 (inhibitory effect, antagonist score)” value does the source give for `C=CCc1ccccc1OC1(c2ccccc2)OC(=O)c2ccccc21` (centres unmarked) [compound 957] here?
Answer: 12 (compounds for which there was clear down regulation at 5 μg/ml and 50 μg/ml)

Question: How did the “hTLR3 (inhibitory effect, antagonist score)” value turn out when `COC(=O)c1ccc(C2CC(=O)Nc3c2ccc2ccccc32)cc1` (centres unmarked) [compound 965] was run?
Answer: 12 (compounds for which there was clear down regulation at 5 μg/ml and 50 μg/ml)

Question: How did the “hTLR3 (inhibitory effect, antagonist score)” value turn out when `O=C(O)c1ccc(C2(c3ccc(C(=O)O)cc3)OC(=O)c3ccccc32)cc1` [compound 970] was run?
Answer: — (compounds for which there was no clear down regulation even at 50 μg/ml)

Question: How did the “hTLR3 (inhibitory effect, antagonist score)” value turn out when `Cc1cc(OC(=O)C2C3CCCCC32)c(C(C)C)cc1C1(c2cc(C(C)C)c(OC(=O)C3C4CCCCC43)cc2C)OC(=O)c2ccccc21` (centres unmarked) [compound 974] was run?
Answer: 11 (compounds for which there was clear down regulation only at 50 μg/ml)

Question: With `CCN(CC)CCCN(CC(=O)C1c2ccc(Cl)cc2NC(=O)c2ccccc21)C(=O)c1ccccc1` (centres unmarked) [compound 1013] as the compound, how does the “hTLR3 (inhibitory effect, antagonist score)” value read?
Answer: — (compounds for which there was no clear down regulation even at 50 μg/ml)
